Values of other authors as cited in the CATMoS acute toxicity set (Mansouri et al. 2021).
Where “and” joins values, the source holds several entries; their conditions need not be identical. Equal values may be shown once.

Assay: rat acute oral toxicity
Conditions: in vivo

Row | SMILES | LD50
1 | CNC(=O)Oc1ccc(NC(C)=O)cc1 | 794 mg/kg
2 | CC(O)COC(C)(C)C (centres undefined) | 3770 mg/kg
3 | Cc1cccc(N)n1 | 100 mg/kg
4 | O=[N+]([O-])c1ccc2c(N=Nc3ccc4ccccc4c3O)c(O)cc(S(=O)(=O)O)c2c1 | 17600 mg/kg
5 | COC(=O)C1=C(C)NC(C)=C(C(=O)OCC(C)=O)C1c1ccccc1[N+](=O)[O-] (centres undefined) | 1460 mg/kg
6 | OCC(F)(F)C(F)(F)C(F)(F)CO | 1780 mg/kg
7 | CCOc1cc(OP(=S)(OC)OC)nc(CC)n1 | 1800 mg/kg
8 | C=CBr | 500 mg/kg
9 | CC(=O)Oc1ccccc1C=CC(=O)O | 3150 mg/kg
10 | COc1cc(C(Cl)(Cl)Cl)cc(Cl)n1 | 1500 mg/kg
11 | O=S(=O)(O)OCCOc1cc(Cl)c(Cl)cc1Cl | 720 mg/kg
12 | CCOC(=O)[C@H](CCc1ccccc1)N[C@@H](C)C(=O)N1Cc2cc(OC)c(OC)cc2C[C@H]1C(=O)O | 4020 mg/kg
13 | O=c1oc2cc(Cl)ccc2n1CO | 2800 mg/kg
14 | CN(C)CCC#N | 2600 mg/kg
15 | O=C(c1ccccc1)N1CCN=C1Nc1c(Cl)cccc1Cl | 68.1 mg/kg
16 | CCCCC(CC)CN1C(=O)C2C3C=CC(C3)C2C1=O (centres undefined) | 2800 mg/kg
17 | CCOP(=S)(OCC)SCSCc1ccccc1 | 6 mg/kg
18 | CCCCCCOC(=O)c1ccccc1C(=O)OCCCCCC | 29600 mg/kg
19 | CC(NNC(=O)c1ccccc1)c1ccccc1 (centres undefined) | 675 mg/kg
20 | CCOP(=S)(OCC)Oc1cc(C)nc(N(C)C)n1 | 125 mg/kg
21 | c1ccc(-n2cnnc2)cc1 | 134 mg/kg
22 | CSP(SC)SC | 105 mg/kg
23 | OCCN1CCN(CCCN2c3ccccc3Sc3ccc(Cl)cc32)CC1 | 318 mg/kg and 210 mg/kg
24 | N#C/C(=C1\SCC(c2ccccc2Cl)S1)n1ccnc1 (centres undefined) | 652 mg/kg
25 | O=C1OC(=O)c2ccc3c4c(ccc1c24)C(=O)OC3=O | 7400 mg/kg
26 | CC(C)OC(Cl)=C(Cl)C(Cl)=C(Cl)Cl | 1210 mg/kg

Row | SMILES | LD50
27 | CC1=NN(c2ccccc2)C(=O)C1 | 1920 mg/kg
28 | C=CC(=O)OCCOC(=O)C=C | 300 mg/kg
29 | COC(=O)Nc1nc2ccc(C(=O)c3ccc(F)cc3)cc2[nH]1 | 2560 mg/kg
30 | COc1cc(C=CC(=O)N2CCN(CC(=O)NC(C)C)CC2)cc(OC)c1OC | 1300 mg/kg
31 | O=S(=O)(Nc1ncc(OCCO)cn1)c1ccccc1 | 8000 mg/kg
32 | COc1cc(NS(=O)(=O)c2ccc(N)cc2)ncn1 | 5620 mg/kg
33 | CCCC/C=C\CCCCCCO | 11700 mg/kg
34 | C=CC1(C)CCC(C(C)(C)O)O1 (centres undefined) | 1150 mg/kg
35 | NCCc1c[nH]c2ccccc12 | 300 mg/kg
36 | CCOC(=O)NS(=O)(=O)c1ccc(Cl)cc1 | 380 mg/kg
37 | CCCN=C(NCCC)C(OCC)c1ccc(Cl)cc1 (centres undefined) | 47 mg/kg
38 | COP(=O)(OC)Oc1cc(C)n(C)c(=O)c1 | 2.91 mg/kg
39 | O=C(c1ccccc1)c1ccc(O)cc1O | 8600 mg/kg
40 | Cc1ccccc1NC(=S)NN | 200 mg/kg
41 | CN1CCC23CCCCC2C1Cc1ccc(O)cc13 (centres undefined) | 350 mg/kg
42 | NC(=O)NC(=O)Cc1ccccc1 | 1600 mg/kg
43 | c1ccc(C(c2ccccc2)(c2ccccc2)N2CCOCC2)cc1 | 83 mg/kg
44 | O=C1c2ccccc2C(=O)C1c1ccccc1 | 163 mg/kg
45 | C=C(CC(C)(C)c1ccccc1)c1ccccc1 | 300 mg/kg
46 | CCCCN1CCCC1=Nc1ccc(Cl)c(Cl)c1 | 3050 mg/kg
47 | Nc1ccc(-c2ccc(-n3nc4ccc5c(S(=O)(=O)O)cc(S(=O)(=O)O)cc5c4n3)cc2)cc1S(=O)(=O)O | 9500 mg/kg
48 | CNC(=O)Oc1ccccc1C1CCCC1 | 187 mg/kg
49 | CCCN(CCCCOC(=O)c1ccc(OC)c(OC)c1)C1CCc2cc(OC)ccc2C1 (centres undefined) | 707 mg/kg
50 | CCOC(=O)c1ncn2c1CN(C)C(=O)c1cc(F)ccc1-2 | 4200 mg/kg
51 | CN(Cc1cc(Br)cc(Br)c1N)C1CCCCC1 | 6000 mg/kg
52 | CNC(=O)Oc1ccc2c(c1)[C@]1(C)CCN(C)[C@@H]1N2C | 4.5 mg/kg

Row | SMILES | LD50
53 | Cc1cc(S(=O)(=O)O)c(N)cc1Cl | 12300 mg/kg
54 | CCCCOCCOCCSC#N | 90 mg/kg
55 | Cc1cc(OC(=O)N(C)C)nn1C(=O)N(C)C | 25 mg/kg
56 | Cc1c(C)c2c(c(C)c1O)CCC(C)(C(=O)O)O2 (centres undefined) | 4300 mg/kg
57 | C#CCc1ccc(COC(=O)C2C(C=C(C)C)C2(C)C)o1 (centres undefined) | 10000 mg/kg
58 | CC(C)NCC(O)COc1cccc2c1OCC(O)C2 (centres undefined) | 1840 mg/kg
59 | CCOP(=O)(OCC)Oc1cc(C)oc(=O)c1 | 3.34 mg/kg
60 | BrC1(Br)C2CCC1CC2 | 210 mg/kg
61 | CN=C(O)Oc1cccc2c1OC(C)C2 (centres undefined) | 43 mg/kg
62 | CC[C@H]1CCCC(O[C@H]2CC[C@H](N(C)C)[C@@H](C)O2)[C@@H](C)C(=O)C2=C[C@@H]3[C@@H](C=C[C@@H]4C[C@@H](O[C@@H]5O[C@@H](C)[C@H](OC)[C@@H](OC)[C@H]5OC)C[C@@H]34)[C@@H]2CC(=O)O1 (some centres undefined) | 3740 mg/kg
63 | COP(=S)(OC)SCn1nc(Br)ccc1=O | 3.75 mg/kg
64 | NCCCn1ccnc1 | 1780 mg/kg
65 | O=C(C(F)(F)Cl)C(F)(F)Cl | 61 mg/kg
66 | CN(C)S(=O)(=O)CCCCNC(=O)N(CCCl)N=O | 250 mg/kg
67 | OC(COc1ccccc1)COc1ccccc1 | 1450 mg/kg
68 | CCCCCC=CCC1CC(=O)OC1=O (centres undefined) | 1100 mg/kg
69 | CC(C)(C)N | 96 mg/kg
70 | CNC(=O)CSP(=O)(OC)SC (centres undefined) | 100 mg/kg
71 | CN(C)P1(=S)OCc2cc([N+](=O)[O-])ccc2O1 (centres undefined) | 125 mg/kg
72 | CCOC(=O)C(C)O (centres undefined) | 8200 mg/kg
73 | CCCCC(C)=O | 2590 mg/kg
74 | FC(F)(F)c1nc2c(Cl)ccc(Cl)c2[nH]1 | 2.61 mg/kg
75 | CCCCC(=O)c1ccc(N)cc1 | 84 mg/kg
76 | Cc1cc(C)cc(O)c1 | 608 mg/kg
77 | Cc1cccnc1-n1c(C)nc2ccccc2c1=O | 395 mg/kg
78 | CC(O)CC(C)O (centres undefined) | 6860 mg/kg

Row | SMILES | LD50
79 | COc1ccc([N+](=O)[O-])cc1 | 2300 mg/kg
80 | Cc1onc2c(=O)n(C)nc(-c3ccccc3)c12 | 1000 mg/kg
81 | c1ccc2c(NC3=NCCS3)cccc2c1 | 50 mg/kg
82 | CCNc1nc(Cl)nc(N(CC)CC)n1 | 594 mg/kg
83 | COC(=O)COc1ccc2ccccc2c1 | 2800 mg/kg
84 | CC(C)CCCCCOC(=O)COc1ccc(Cl)cc1Cl | 982 mg/kg
85 | Clc1ccc(OCC2=NCCN2)cc1Cl | 100 mg/kg
86 | Nc1nc(N)c2nc(-c3ccccc3)c(N)nc2n1 | 400 mg/kg
87 | CCC(C)(O)Cc1ccccc1 (centres undefined) | 4000 mg/kg
88 | COc1cc2[nH]c(C)c(CCN3CCN(c4ccccc4)CC3)c2cc1OC | 1000 mg/kg
89 | CCCC(=NOCC)C1=C(O)CC(C2CCCSC2)CC1=O (centres undefined) | 3940 mg/kg
90 | CN1C(=O)CCc2cc(C(=O)CCN3CCN(c4ccccc4)CC3)ccc21 | 500 mg/kg
91 | Nc1ccc(N)c2c1C(=O)c1ccccc1C2=O | 5790 mg/kg
92 | FC(F)(F)c1nc2cc(Br)c(Cl)cc2[nH]1 | 9.04 mg/kg
93 | CN1CC(O)N(c2nnc(C(C)(C)C)s2)C1=O (centres undefined) | 1540 mg/kg
94 | Cc1nc2n(c(=O)c1CCN1CCC(c3noc4cc(F)ccc34)CC1)CCC[C@H]2O | 65 mg/kg
95 | NC1=C(Cl)C(=O)c2ccccc2C1=O | 1360 mg/kg
96 | c1ccc(C2(c3ccccc3)CC2C2=NCCN2)cc1 (centres undefined) | 359 mg/kg
97 | N#C[SeH] | 10 mg/kg
98 | COC1C(O)CC(=O)OC(C)CC=CC=CC(OC2CCC(N(C)C)C(C)O2)C(C)CC(CC=O)C1OC1OC(C)C(OC2CC(C)(O)C(O)C(C)O2)C(N(C)C)C1O (centres undefined) | 4650 mg/kg
99 | CC(C)(Oc1ccc(Cl)cc1)C(=O)O | 897 mg/kg
100 | CCN(CCO)CCn1c(Cc2ccccc2)nc2c1c(=O)n(C)c(=O)n2C | 1140 mg/kg
101 | Cc1cc(C)c(C2=C(OC(=O)C(C)(C)C)c3ccccc3C2=O)c(C)c1 | 8000 mg/kg
102 | CCC1(c2ccccc2)CCC(=O)NC1=O (centres undefined) | 600 mg/kg
103 | N#Cc1ccccc1C#N | 30 mg/kg
104 | CC(Cl)C(Cl)Cl (centres undefined) | 1230 mg/kg
